Experimental data published in the supplement of paper PMC10883282.
± gives the standard deviation of the averaged measurements.

Test system: HT1080
Assay: relative viability vs DMSO control (72 h) (fraction); higher = more viable cells
In short: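 Sarcoma cell lines were seeded in 384-well plates at densities chosen for 80–90% confluence, then 24 h later given 2.5 µl of serially diluted compound drawn from source plates spanning 10 mM to 0.0002 mM. They were held 72 h at 37 °C, 5% CO2, with 0.1% DMSO vehicle and a 5 µM positive control included. Relative viability was read with ATPLite as percent growth and averaged over up to triplicate wells. Rescaling placed full at 1 and none at 0.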

| SMILES | relative viability (0.00017 µM) | relative viability (0.00051 µM) | relative viability (0.00152 µM) | relative viability (0.00457 µM) | relative viability (0.01372 µM) | relative viability (0.04115 µM) | relative viability (0.1235 µM) | relative viability (0.3704 µM) | relative viability (1.111 µM) | relative viability (3.333 µM) | relative viability (10 µM) |
| --- | --- | --- | --- | --- | --- | --- | --- | --- | --- | --- | --- |
| Cc1cc(C)c(/C=C2\C(=O)Nc3ccccc32)[nH]1 [Semaxanib] | 0.923 ± 0.051 | 0.964 ± 0.038 | 0.94 ± 0.023 | 0.945 ± 0.018 | 0.926 ± 0.022 | 0.946 ± 0.049 | 0.893 ± 0.059 | 0.921 ± 0.018 | 0.928 ± 0.023 | 0.939 ± 0.034 | 0.888 ± 0.065 |
| O=C(Nc1cnn2ccc(N3CCC[C@@H]3c3cc(F)ccc3F)nc12)N1CC[C@H](O)C1 [Larotrectinib] | 1.08 ± 0.042 | 1.05 ± 0.035 | 1.05 ± 0.039 | 1.05 ± 0.054 | 1.07 ± 0.038 | 1.06 ± 0.058 | 1.07 ± 0.014 | 1.09 ± 0.036 | 1.04 ± 0.028 | 1.06 ± 0.022 | 1.03 ± 0.022 |
| C=CC(=O)N1CCC[C@@H](n2nc(-c3ccc(Oc4ccccc4)cc3)c3c(N)ncnc32)C1 [Ibrutinib] | 1.07 ± 0.019 | 1.11 ± 0.019 | 1.1 ± 0.012 | 1.05 ± 0.012 | 1.1 ± 0.022 | 1.06 ± 0.055 | 1.06 ± 0.015 | 1.07 ± 0.025 | 1.12 ± 0.027 | 1.14 ± 0.022 | 1.101 ± 0.0017 |
| CC(C)N1CCN(Cc2cnc(-c3cc(-c4cccc5[nH]ccc45)cc4[nH]ncc34)o2)CC1 [Nemiralisib] | 1 ± 0.045 | 1.03 ± 0.015 | 1.01 ± 0.02 | 1.027 ± 0.0081 | 1.008 ± 0.0024 | 1.02 ± 0.011 | 1.05 ± 0.045 | 1.05 ± 0.034 | 1.08 ± 0.068 | 1.02 ± 0.033 | 0.858 ± 0.024 |
| CN1CCN(c2ccc3nc(-c4c(N)c5c(F)cccc5[nH]c4=O)[nH]c3c2)CC1 [Dovitinib] | 1.1 ± 0.047 | 1.09 ± 0.053 | 1.05 ± 0.046 | 1.1 ± 0.028 | 1.09 ± 0.013 | 1.095 ± 0.0071 | 1.11 ± 0.023 | 1.155 ± 0.0091 | 0.975 ± 0.017 | 0.632 ± 0.023 | 0.154 ± 0.08 |
| COc1c(OCCCN2CCOCC2)ccc2c1N=C(NC(=O)c1cnc(N)nc1)N1CCN=C21 [Copanlisib] | 1.15 ± 0.059 | 1.14 ± 0.034 | 1.12 ± 0.04 | 1.111 ± 0.0021 | 1.1 ± 0.017 | 1.12 ± 0.016 | 1.08 ± 0.034 | 0.964 ± 0.026 | 0.65405 ± 0.00049 | 0.342 ± 0.022 | 0.224 ± 0.025 |
| CNC(=O)c1ccc(-c2cnc3ncc(Cc4ccc5ncccc5c4)n3n2)cc1F [Capmatinib] | 1.06 ± 0.022 | 1.06 ± 0.041 | 1.06 ± 0.018 | 1.06 ± 0.014 | 1.06 ± 0.012 | 1.04 ± 0.019 | 1.05 ± 0.014 | 1.05 ± 0.028 | 1.044 ± 0.01 | 0.989 ± 0.015 | 1.005 ± 0.0012 |
| Cn1cc(-c2cc3c(N4CCN(c5ncc([C@@](C)(N)c6ccc(F)cc6)cn5)CC4)ncnn3c2)cn1 [Avapritinib] | 0.967 ± 0.065 | 1.03 ± 0.019 | 0.98 ± 0.042 | 1.01 ± 0.041 | 1 ± 0.017 | 1.01 ± 0.039 | 1.03 ± 0.048 | 1.01 ± 0.013 | 0.908 ± 0.029 | 0.905 ± 0.014 | 0.826 ± 0.023 |
| CCCS(=O)(=O)Nc1ccc(F)c(C(=O)c2c[nH]c3ncc(-c4ccc(Cl)cc4)cc23)c1F [Vemurafenib] | 1.1 ± 0.032 | 1.07 ± 0.049 | 1.09 ± 0.05 | 1.08 ± 0.031 | 1.08 ± 0.044 | 1.07 ± 0.045 | 1.07 ± 0.043 | 1.08 ± 0.04 | 1.13 ± 0.031 | 1.04 ± 0.023 | 0.663 ± 0.25 |
| CC1(C)CNc2cc(NC(=O)c3cccnc3NCc3ccncc3)ccc21 [Motesanib] | 1.03 ± 0.036 | 0.975 ± 0.032 | 1.03 ± 0.016 | 1.03 ± 0.023 | 1.04 ± 0.041 | 1 ± 0.04 | 1.02 ± 0.0035 | 0.98 ± 0.012 | 1.01 ± 0.018 | 0.9961 ± 0.0086 | 0.976 ± 0.015 |
| C=CC(=O)Nc1cccc(Oc2nc(Nc3ccc(N4CCN(C)CC4)cc3)nc3ccsc23)c1 [Olmutinib] | 1.05 ± 0.021 | 1.08 ± 0.014 | 1.07 ± 0.017 | 1.07 ± 0.018 | 1.05 ± 0.049 | 1.0797 ± 0.00078 | 1.07 ± 0.011 | 1.06 ± 0.019 | 1.04 ± 0.015 | 1.03 ± 0.037 | 0.492 ± 0.13 |
| COc1cc2nccc(Oc3ccc(NC(=O)Nc4cc(C)on4)c(Cl)c3)c2cc1OC [Tivozanib] | 1.04 ± 0.027 | 1.06 ± 0.021 | 1.06 ± 0.032 | 1.07 ± 0.026 | 1.046 ± 0.01 | 1.06 ± 0.02 | 1.05 ± 0.019 | 1.07 ± 0.02 | 1.1 ± 0.04 | 1.12 ± 0.015 | 0.967 ± 0.021 |
| CNC(=O)c1cc(Oc2ccc(NC(=O)Nc3ccc(Cl)c(C(F)(F)F)c3)c(F)c2)ccn1 [Regorafenib] | 1.1 ± 0.055 | 1.128 ± 0.0073 | 1.09 ± 0.012 | 1.09 ± 0.012 | 1.12 ± 0.028 | 1.11 ± 0.056 | 1.1 ± 0.02 | 1.08 ± 0.021 | 1.05 ± 0.014 | 0.952 ± 0.028 | 0.542 ± 0.062 |
| Cc1ccc(F)c(NC(=O)Nc2ccc(-c3cccc4[nH]nc(N)c34)cc2)c1 [Linifanib] | 1.08 ± 0.022 | 1.08 ± 0.026 | 1.07 ± 0.017 | 1.033 ± 0.0064 | 1.06 ± 0.02 | 1.07 ± 0.037 | 1.048 ± 0.0077 | 1.08 ± 0.0094 | 1.08 ± 0.031 | 1.08 ± 0.03 | 1.05 ± 0.015 |
